Reference: ChEMBL document CHEMBL1781986, “Structure-activity relationships of pyrrole based S-nitrosoglutathione reductase inhibitors: pyrrole regioisomers and propionic acid replacement” (Bioorg Med Chem Lett, 2011)
Activity calls are given as the source filed them. The calls are words filed in the database; no cut-off is given here.

Tests used:
[1] = target: Melanocortin receptor 4 (Homo sapiens) (UniProt P32245); experiment: Inhibition of human recombinant MC4 receptor at 10 uM by radioligand binding assay
[2] = target: 5-hydroxytryptamine receptor 5A (Homo sapiens) (UniProt P47898); experiment: Inhibition of human recombinant 5HT5A receptor at 10 uM by radioligand binding assay
[3] = target: D(2) dopamine receptor (Homo sapiens) (UniProt P14416); experiment: Inhibition of human recombinant D2S receptor at 10 uM by radioligand binding assay
[4] = target: T1, 5-hydroxytryptamine receptor 3A (Homo sapiens) (UniProt P46098); experiment: Inhibition of human recombinant 5HT3 receptor at 10 uM by radioligand binding assay
T1 sequence (whole entry): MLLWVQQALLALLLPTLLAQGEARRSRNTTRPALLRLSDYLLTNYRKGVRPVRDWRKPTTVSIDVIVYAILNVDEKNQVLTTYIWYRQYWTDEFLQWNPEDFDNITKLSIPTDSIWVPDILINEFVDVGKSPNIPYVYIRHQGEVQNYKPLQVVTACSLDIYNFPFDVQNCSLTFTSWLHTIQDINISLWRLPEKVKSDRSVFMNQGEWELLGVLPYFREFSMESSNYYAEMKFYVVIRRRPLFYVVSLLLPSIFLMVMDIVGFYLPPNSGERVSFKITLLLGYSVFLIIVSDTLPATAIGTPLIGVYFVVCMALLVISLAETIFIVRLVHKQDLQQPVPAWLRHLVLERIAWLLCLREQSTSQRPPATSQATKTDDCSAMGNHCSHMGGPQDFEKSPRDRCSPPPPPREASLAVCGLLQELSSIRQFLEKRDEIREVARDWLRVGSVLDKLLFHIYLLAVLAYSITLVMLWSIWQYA

[5] = target: Muscarinic acetylcholine receptor M3 (Homo sapiens) (UniProt P20309); experiment: Inhibition of human recombinant M3 receptor at 10 uM by radioligand binding assay
[6] = target: T2, Adenosine receptor A3 (Homo sapiens) (UniProt P0DMS8); experiment: Inhibition of human recombinant A3 receptor at 10 uM by radioligand binding assay
T2 sequence (whole entry): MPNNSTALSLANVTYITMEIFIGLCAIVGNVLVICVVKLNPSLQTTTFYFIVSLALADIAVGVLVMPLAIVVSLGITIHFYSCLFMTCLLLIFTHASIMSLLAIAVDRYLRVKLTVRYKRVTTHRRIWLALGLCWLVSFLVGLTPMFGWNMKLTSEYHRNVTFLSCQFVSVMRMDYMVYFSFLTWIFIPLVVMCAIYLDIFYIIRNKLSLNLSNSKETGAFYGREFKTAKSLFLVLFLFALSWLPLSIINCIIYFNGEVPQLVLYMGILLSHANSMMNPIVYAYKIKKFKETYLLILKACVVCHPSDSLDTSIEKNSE

[7] = target: T3, Substance-K receptor (Homo sapiens) (UniProt P21452); experiment: Inhibition of human recombinant NK2 receptor at 10 uM by radioligand binding assay
T3 sequence (whole entry): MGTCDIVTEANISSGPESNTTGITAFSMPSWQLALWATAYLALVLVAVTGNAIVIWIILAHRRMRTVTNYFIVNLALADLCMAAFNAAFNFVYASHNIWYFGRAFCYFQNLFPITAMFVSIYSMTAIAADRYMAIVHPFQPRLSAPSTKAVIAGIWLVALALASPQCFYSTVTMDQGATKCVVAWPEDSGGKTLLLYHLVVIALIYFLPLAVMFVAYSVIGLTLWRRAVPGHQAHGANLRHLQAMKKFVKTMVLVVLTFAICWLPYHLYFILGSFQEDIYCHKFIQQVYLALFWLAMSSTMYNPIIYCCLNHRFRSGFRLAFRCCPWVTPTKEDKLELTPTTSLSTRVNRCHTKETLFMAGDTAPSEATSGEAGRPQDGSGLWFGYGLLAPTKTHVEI

[8] = target: Cannabinoid receptor 1 (Homo sapiens) (UniProt P21554); experiment: Inhibition of human recombinant CB1 receptor at 10 uM by radioligand binding assay
[9] = target: T4, B2 bradykinin receptor (Homo sapiens) (UniProt P30411); experiment: Inhibition of human recombinant B2 bradykinin receptor at 10 uM by radioligand binding assay
T4 sequence (whole entry): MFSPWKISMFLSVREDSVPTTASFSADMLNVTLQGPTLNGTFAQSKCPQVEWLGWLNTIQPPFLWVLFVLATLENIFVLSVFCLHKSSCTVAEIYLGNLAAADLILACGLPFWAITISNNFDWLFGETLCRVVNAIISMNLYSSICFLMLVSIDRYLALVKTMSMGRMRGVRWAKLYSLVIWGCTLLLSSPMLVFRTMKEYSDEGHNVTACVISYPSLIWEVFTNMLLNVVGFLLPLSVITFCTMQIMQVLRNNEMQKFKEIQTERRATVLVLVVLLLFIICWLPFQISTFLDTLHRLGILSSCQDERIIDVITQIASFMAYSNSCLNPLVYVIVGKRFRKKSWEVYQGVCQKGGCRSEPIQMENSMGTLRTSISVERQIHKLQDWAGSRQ

Homo sapiens = species: Homo sapiens; experiment: Inhibition of human recombinant sst receptor at 10 uM by radioligand binding assay
[10] = target: T5, Thromboxane A2 receptor (Homo sapiens) (UniProt P21731); experiment: Inhibition of human recombinant TP receptor at 10 uM by radioligand binding assay
T5 sequence (whole entry): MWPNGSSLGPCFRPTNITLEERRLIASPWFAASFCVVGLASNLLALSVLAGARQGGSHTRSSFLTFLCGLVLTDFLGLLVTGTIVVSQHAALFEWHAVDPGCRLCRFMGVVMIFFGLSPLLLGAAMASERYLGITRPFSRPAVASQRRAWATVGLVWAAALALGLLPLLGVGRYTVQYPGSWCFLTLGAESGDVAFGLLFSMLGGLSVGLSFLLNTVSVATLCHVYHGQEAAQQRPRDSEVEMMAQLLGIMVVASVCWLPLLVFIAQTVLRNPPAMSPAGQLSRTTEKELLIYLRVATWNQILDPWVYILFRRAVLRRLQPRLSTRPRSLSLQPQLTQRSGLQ

[11] = target: T6, C-X-C chemokine receptor type 2 (Homo sapiens) (UniProt P25025); experiment: Inhibition of human recombinant CXCR2 receptor at 10 uM by radioligand binding assay
T6 sequence (whole entry): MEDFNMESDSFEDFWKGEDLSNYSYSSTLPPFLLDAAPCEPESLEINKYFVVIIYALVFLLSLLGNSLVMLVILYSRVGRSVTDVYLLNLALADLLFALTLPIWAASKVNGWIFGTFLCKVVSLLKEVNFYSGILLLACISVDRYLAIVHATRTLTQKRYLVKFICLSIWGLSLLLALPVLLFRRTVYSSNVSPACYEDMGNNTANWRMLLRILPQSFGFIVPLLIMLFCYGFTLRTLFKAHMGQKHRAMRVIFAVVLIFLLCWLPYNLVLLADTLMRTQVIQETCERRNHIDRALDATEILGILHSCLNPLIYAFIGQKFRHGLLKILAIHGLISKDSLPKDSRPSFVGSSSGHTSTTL

[12] = target: Voltage-gated L-type calcium channel (Homo sapiens, UniProt Q13936+Q13698+Q01668+O60840); experiment: Inhibition of human recombinant L-type Ca2+ channel at 10 uM by radioligand binding assay

Chain of Cannabinoid receptor 1 (Homo sapiens) (P21554 whole entry): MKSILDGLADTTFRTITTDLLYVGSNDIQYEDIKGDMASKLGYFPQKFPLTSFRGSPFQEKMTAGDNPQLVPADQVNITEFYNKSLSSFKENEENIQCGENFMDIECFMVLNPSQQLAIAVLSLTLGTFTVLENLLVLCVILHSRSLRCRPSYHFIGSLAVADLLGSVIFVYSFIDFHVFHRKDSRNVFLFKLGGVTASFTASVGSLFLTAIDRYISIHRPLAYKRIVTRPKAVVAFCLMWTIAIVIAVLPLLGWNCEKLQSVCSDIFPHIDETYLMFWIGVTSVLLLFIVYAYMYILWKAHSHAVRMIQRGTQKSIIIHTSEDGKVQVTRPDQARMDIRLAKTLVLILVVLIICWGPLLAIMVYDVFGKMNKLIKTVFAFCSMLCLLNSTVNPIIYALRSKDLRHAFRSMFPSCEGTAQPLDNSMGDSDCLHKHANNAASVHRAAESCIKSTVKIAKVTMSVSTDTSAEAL
Chain of 5-hydroxytryptamine receptor 5A (Homo sapiens) (P47898 whole entry): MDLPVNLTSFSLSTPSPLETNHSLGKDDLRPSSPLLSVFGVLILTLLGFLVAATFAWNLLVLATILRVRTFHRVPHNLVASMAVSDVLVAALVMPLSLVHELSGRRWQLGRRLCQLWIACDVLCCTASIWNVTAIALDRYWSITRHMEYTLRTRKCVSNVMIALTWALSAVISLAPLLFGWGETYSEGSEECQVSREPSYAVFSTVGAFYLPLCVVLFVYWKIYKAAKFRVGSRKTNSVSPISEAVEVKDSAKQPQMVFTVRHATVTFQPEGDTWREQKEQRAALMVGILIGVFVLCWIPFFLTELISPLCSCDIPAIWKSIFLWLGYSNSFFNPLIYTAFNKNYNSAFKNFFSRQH
Chain of Melanocortin receptor 4 (Homo sapiens) (P32245 whole entry): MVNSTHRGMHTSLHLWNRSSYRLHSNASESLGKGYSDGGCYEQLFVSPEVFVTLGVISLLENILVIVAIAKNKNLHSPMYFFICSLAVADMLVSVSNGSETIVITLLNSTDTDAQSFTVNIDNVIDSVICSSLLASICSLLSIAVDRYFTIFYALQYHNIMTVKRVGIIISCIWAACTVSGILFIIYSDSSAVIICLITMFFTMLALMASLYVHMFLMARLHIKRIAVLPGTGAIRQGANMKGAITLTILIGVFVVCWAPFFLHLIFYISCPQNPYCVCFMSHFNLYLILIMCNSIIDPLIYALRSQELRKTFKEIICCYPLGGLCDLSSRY
Chain of Muscarinic acetylcholine receptor M3 (Homo sapiens) (P20309 whole entry, looked up): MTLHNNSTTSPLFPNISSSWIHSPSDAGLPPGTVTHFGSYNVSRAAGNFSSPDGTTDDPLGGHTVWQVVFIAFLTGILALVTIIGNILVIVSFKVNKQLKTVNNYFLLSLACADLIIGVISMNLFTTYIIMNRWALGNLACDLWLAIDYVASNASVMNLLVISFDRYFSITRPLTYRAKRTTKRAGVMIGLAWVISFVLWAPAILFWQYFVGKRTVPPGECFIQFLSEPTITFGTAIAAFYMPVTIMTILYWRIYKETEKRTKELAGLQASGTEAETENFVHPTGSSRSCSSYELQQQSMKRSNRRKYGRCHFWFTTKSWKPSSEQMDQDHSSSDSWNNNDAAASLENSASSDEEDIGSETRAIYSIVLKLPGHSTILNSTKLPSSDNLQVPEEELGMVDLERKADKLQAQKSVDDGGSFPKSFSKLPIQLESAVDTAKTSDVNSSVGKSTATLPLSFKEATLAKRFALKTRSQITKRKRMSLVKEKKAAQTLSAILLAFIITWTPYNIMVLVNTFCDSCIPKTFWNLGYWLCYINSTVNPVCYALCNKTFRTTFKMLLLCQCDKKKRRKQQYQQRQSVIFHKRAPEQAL
Chain of D(2) dopamine receptor (Homo sapiens) (P14416 whole entry): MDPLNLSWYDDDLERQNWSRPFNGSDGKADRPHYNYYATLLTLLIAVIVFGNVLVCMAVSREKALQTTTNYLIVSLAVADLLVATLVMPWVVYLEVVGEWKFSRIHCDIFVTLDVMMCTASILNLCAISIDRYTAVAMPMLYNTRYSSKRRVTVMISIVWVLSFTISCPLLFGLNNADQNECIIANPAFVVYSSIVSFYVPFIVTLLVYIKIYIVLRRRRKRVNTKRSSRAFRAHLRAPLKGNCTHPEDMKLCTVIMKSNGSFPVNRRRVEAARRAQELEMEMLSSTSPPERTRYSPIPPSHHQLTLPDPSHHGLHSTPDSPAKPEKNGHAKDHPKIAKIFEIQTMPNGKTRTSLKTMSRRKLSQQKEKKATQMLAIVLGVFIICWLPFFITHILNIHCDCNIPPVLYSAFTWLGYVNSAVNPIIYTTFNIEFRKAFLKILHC

inhibition [1]	inhibition [2]	inhibition [3]	inhibition [4]	inhibition [5]	inhibition [6]	inhibition [7]	inhibition [8]	inhibition [9]	inhibition (Homo sapiens)	inhibition [10]	inhibition [11]	inhibition (INH) [12]	SMILES
Active	Active	Active	Active	Active	Active	Active	Active	Active	Active	Active	Active	Active	COc1ccc(-c2ccn(-c3ccc(O)c([N+](=O)[O-])c3)c2-c2ccc(C(N)=O)cc2C)cc1
inactive	inactive	inactive	inactive	inactive	inactive	inactive	inactive	inactive	inactive	inactive	inactive	Not Active	Cc1cc(C(N)=O)ccc1-n1c(CCC(=O)O)ccc1-c1ccc(-n2ccnc2)cc1 [N6022]
inactive	inactive	inactive	inactive	inactive	inactive	inactive	inactive	inactive	inactive	inactive	inactive	Not Active	Cc1cc(C(N)=O)ccc1-c1c(-c2ccc(-n3ccnc3)cc2)ccn1CCC(=O)O
Active	Active	Active	Active	Active	Active	Active	Active	Active	Active	Active	Active	Active	COc1ccc(-c2ccn(-c3ccc(C(=O)O)c(O)c3)c2-c2ccc(C(N)=O)cc2C)cc1
inactive	inactive	inactive	inactive	inactive	inactive	inactive	inactive	inactive	inactive	inactive	inactive	Not Active	Cc1cc(C(N)=O)ccc1-c1c(CCC(=O)O)ccn1-c1ccc(-n2ccnc2)cc1
